{"source": "ChEMBL document CHEMBL5725783", "about": "“Substituted sulfonamide compounds” (2017)", "molecular_target": "Transient receptor potential cation channel subfamily A member 1 (Homo sapiens, UniProt O75762)", "sequence (O75762 whole entry)": "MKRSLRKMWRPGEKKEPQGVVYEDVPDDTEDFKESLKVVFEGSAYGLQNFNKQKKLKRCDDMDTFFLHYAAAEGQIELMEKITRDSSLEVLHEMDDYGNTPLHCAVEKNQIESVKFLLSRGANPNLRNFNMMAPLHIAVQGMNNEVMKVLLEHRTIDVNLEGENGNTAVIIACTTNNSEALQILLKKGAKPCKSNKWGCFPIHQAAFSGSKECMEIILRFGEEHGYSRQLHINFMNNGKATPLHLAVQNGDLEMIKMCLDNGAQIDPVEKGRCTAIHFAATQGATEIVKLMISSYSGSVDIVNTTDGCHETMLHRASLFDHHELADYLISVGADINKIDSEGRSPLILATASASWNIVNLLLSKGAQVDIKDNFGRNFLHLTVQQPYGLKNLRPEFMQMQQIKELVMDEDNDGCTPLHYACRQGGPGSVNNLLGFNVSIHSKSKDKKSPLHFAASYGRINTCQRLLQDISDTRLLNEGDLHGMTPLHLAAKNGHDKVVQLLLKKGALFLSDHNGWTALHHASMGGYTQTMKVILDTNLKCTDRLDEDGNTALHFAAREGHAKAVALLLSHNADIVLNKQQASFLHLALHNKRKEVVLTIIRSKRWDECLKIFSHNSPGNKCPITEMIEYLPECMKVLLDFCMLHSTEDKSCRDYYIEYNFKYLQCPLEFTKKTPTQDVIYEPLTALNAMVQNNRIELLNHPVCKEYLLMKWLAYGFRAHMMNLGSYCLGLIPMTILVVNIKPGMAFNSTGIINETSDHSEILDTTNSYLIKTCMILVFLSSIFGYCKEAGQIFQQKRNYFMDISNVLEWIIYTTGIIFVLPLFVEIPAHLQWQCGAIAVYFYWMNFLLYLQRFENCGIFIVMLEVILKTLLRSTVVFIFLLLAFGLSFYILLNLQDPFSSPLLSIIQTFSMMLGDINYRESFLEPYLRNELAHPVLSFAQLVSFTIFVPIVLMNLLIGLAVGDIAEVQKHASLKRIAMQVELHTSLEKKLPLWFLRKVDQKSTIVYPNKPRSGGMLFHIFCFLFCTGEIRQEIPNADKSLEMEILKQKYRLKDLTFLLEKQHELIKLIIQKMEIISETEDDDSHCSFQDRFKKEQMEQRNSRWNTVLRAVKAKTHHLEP", "experiment": "Fluorescence Assay: IC50s (effective concentration) of compounds on the human TRPA1 channel were determined using a Hamamatsu FDSS fluorescence plate reader. CHO cells expressing human TRPA1 were plated into 384-well plates, incubated overnight at 37° C., and loaded with BD calcium indicator dye for 1 hr at 37° C. followed by 15 minutes at room temperature. The assay buffer was Hank's Balanced Salt Solution (HBSS) containing 20 mM HEPES (pH readjusted to 7.4) along with 0.02% BSA.Following dye load and plate cool down, compounds were added to the cells using the FDSS while monitoring fluorescence to determine whether any of the test compounds have TRPA1 agonist activity. Plates were then incubated with compound for 20 minutes at room temperature prior to adding agonist. Following this incubation, […] cinnamaldehyde was added to all wells of the plate and block of this cinnamaldehyde induced calcium influx was measured."}
{"smiles": "CC(C)N(CC(=O)NCc1cc(C2=CCC(C(F)(F)F)CC2)ncn1)S(=O)(=O)c1ccc(F)cc1", "note": "(stereo unspecified)", "values": [{"measurement": "IC50", "value": 0.013, "unit": "µM"}]}
